Experimental findings from PubChem BioAssay (NCI) are described below.

The structures appear in SMILES notation.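 All cell lines were grown in 96-well plates and treated with compound for 48 hours. At the GI50, growth is halved. TGI: total growth inhibition.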

Among the test systems are UACC-257 melanoma; SF-295 CNS; T-47D breast; SN12C renal; M14 melanoma; OVCAR-5 ovarian; HCC-2998 colon; OVCAR-3 ovarian; SK-MEL-28 melanoma; UACC-62 melanoma.
Test in all cases: inhibition of tumour cell growth, NCI panel, 48 h

For the compound `C[C@]12CC[C@@H]3c4cc(I)c(O)cc4CC[C@H]3[C@@H]1CC[C@@H]2O`, the TGI was found to be 23.5 µM in the assay with UACC-257 melanoma; 16.4 µM in the assay on SF-295 CNS; 37.4 µM with T-47D breast; 22.2 µM with SN12C renal; 17.4 µM with M14 melanoma; 25.7 µM with OVCAR-5 ovarian. The TGI in the assay with HCC-2998 colon is 21 µM; in the assay on OVCAR-3 ovarian, 11.9 µM; in the assay on SK-MEL-28 melanoma it was 26.7 µM; with UACC-62 melanoma, 14.5 µM. Also, the values for the GI50 in the assay on SN12C renal and with UACC-62 melanoma were 6.66 µM and 3.63 µM, respectively.

For the compound `CCOC(=O)C1CCC(=O)N1C(=O)c1ccccc1` (stereo not drawn), the TGI in the assay with UACC-257 melanoma, with SF-295 CNS, in the assay with T-47D breast, in the assay with SN12C renal, in the assay on M14 melanoma and in the assay on OVCAR-5 ovarian was more than 100 µM each time. Moreover, the TGI in the assay on HCC-2998 colon, in the assay with OVCAR-3 ovarian, in the assay with SK-MEL-28 melanoma and in the assay with UACC-62 melanoma was more than 100 µM each time.

Turning to `CCCCn1c(-c2ccc([N+](=O)[O-])cc2)cs/c1=N/N=C1\C(=O)Nc2ccc(Br)cc21`, the TGI with UACC-257 melanoma is 47.2 µM; with SF-295 CNS, 61.2 µM; in the assay with T-47D breast it was 35.1 µM; in the assay with SN12C renal it was 11.4 µM; with M14 melanoma it was 27.1 µM; in the assay with OVCAR-5 ovarian, more than 100 µM. The TGI in the assay on HCC-2998 colon was 34.7 µM; in the assay on OVCAR-3 ovarian, 39.8 µM; in the assay on SK-MEL-28 melanoma it was more than 100 µM; in the assay on UACC-62 melanoma, 76.1 µM.

Take `COC(=O)C1(Cc2ccc3c(c2)CCC3)Cc2ccccc2C1`: the TGI in the assay with UACC-257 melanoma, in the assay with SF-295 CNS, in the assay with T-47D breast, in the assay with SN12C renal, with M14 melanoma and in the assay with OVCAR-5 ovarian was more than 100 µM each time. The TGI with HCC-2998 colon, in the assay on OVCAR-3 ovarian, with SK-MEL-28 melanoma and with UACC-62 melanoma was more than 100 µM in each case.

In the case of `CNC(=O)CCCNC(=O)CCCC(=O)N(C)C`, the TGI in the assay with UACC-257 melanoma, in the assay with SF-295 CNS, in the assay on T-47D breast, in the assay with SN12C renal, in the assay on M14 melanoma and with OVCAR-5 ovarian was more than 100 µM each time. The TGI in the assay on HCC-2998 colon, in the assay on OVCAR-3 ovarian, with SK-MEL-28 melanoma and in the assay on UACC-62 melanoma was more than 100 µM throughout.

For the compound `CC(C)OC(=O)OCSc1ccccc1N=Cc1cccc([N+](=O)[O-])c1`, the TGI in the assay with UACC-257 melanoma, in the assay on SF-295 CNS, in the assay on T-47D breast, in the assay on SN12C renal, with M14 melanoma and with OVCAR-5 ovarian was more than 10 µM throughout. The TGI in the assay on HCC-2998 colon, with OVCAR-3 ovarian, in the assay with SK-MEL-28 melanoma and with UACC-62 melanoma was more than 10 µM throughout.

Regarding `[O-]/[N+](=C\c1ccccc1OC(=S)S)c1ccc(Cl)cc1`, the TGI is more than 100 µM in the assay with UACC-257 melanoma; more than 100 µM with SF-295 CNS; 88.2 µM in the assay with T-47D breast; 97.8 µM in the assay on SN12C renal; more than 100 µM in the assay with M14 melanoma; more than 100 µM in the assay with OVCAR-5 ovarian. Moreover, the TGI in the assay with HCC-2998 colon, in the assay with OVCAR-3 ovarian, in the assay with SK-MEL-28 melanoma and with UACC-62 melanoma was more than 100 µM in each case.

With `COc1cc(/C=C/C=C2\CC/C(=C\C=C\c3ccc(O)c(OC)c3)C2=O)ccc1O`, the TGI in the assay on UACC-257 melanoma, with SF-295 CNS, in the assay on T-47D breast, in the assay on SN12C renal, in the assay with M14 melanoma and in the assay with OVCAR-5 ovarian was more than 100 µM throughout. Moreover, the TGI with HCC-2998 colon, in the assay with OVCAR-3 ovarian, with SK-MEL-28 melanoma and in the assay on UACC-62 melanoma was more than 100 µM throughout.

With `Oc1[nH]c2ccccc2c1N=NC(=S)Nc1ccc(Cl)cc1`, the TGI in the assay on UACC-257 melanoma is more than 100 µM; in the assay on SF-295 CNS, more than 100 µM; in the assay on T-47D breast it was more than 100 µM; in the assay on SN12C renal, more than 100 µM; in the assay with M14 melanoma, 45.2 µM; in the assay with OVCAR-5 ovarian it was more than 100 µM. Besides, the TGI with HCC-2998 colon, with OVCAR-3 ovarian, in the assay on SK-MEL-28 melanoma and in the assay with UACC-62 melanoma was more than 100 µM each time.

Take `CCC(C(=O)C(=O)OC)P1(=O)OC(C)(C)CN1C(C)(C)C` (stereo not drawn): the TGI with UACC-257 melanoma, in the assay with SF-295 CNS, in the assay with T-47D breast, in the assay on M14 melanoma, in the assay with OVCAR-5 ovarian and in the assay on HCC-2998 colon was more than 100 µM throughout. Further, the TGI in the assay with OVCAR-3 ovarian is more than 100 µM; in the assay on SK-MEL-28 melanoma, more than 100 µM; in the assay on UACC-62 melanoma, 60.4 µM.

As for `C\C(=N/N=C1/C(=C\N(C)C)C(=O)NC(=O)N1C)c1ccc(Cl)cc1`, the TGI in the assay with UACC-257 melanoma, with SF-295 CNS, in the assay on T-47D breast, in the assay with SN12C renal, in the assay on M14 melanoma and in the assay on OVCAR-5 ovarian was more than 100 µM each time. Also, the TGI with HCC-2998 colon, in the assay on OVCAR-3 ovarian, in the assay with SK-MEL-28 melanoma and in the assay on UACC-62 melanoma was more than 100 µM each time.

For `COC(=O)[C@H](Cc1ccccc1)NC(=O)CCCCCCC(=O)NO`, the TGI was 45.4 µM in the assay on UACC-257 melanoma; 44.6 µM in the assay with SF-295 CNS; 8.88 µM in the assay with T-47D breast; more than 100 µM in the assay on SN12C renal; more than 100 µM in the assay with M14 melanoma; 43.9 µM in the assay with OVCAR-5 ovarian. The TGI with HCC-2998 colon was 42.5 µM; with OVCAR-3 ovarian it was 34.9 µM; in the assay on SK-MEL-28 melanoma, more than 100 µM; in the assay on UACC-62 melanoma, 46.8 µM.

As for `Cc1cnc2c(c1)C(=O)C1=C(C2=O)C2OC(=O)CC2OC1(C)C` (stereo not drawn), the TGI in the assay on UACC-257 melanoma was 0.469 µM; with SF-295 CNS, 2.68 µM; in the assay with T-47D breast, 1.42 µM; in the assay with SN12C renal it was 0.318 µM; in the assay on M14 melanoma, 0.824 µM; in the assay with OVCAR-5 ovarian, 0.951 µM. Moreover, the TGI in the assay on HCC-2998 colon turned out to be 0.822 µM; in the assay with OVCAR-3 ovarian it was 0.153 µM; with SK-MEL-28 melanoma, 2.04 µM; with UACC-62 melanoma, 0.351 µM.

Regarding `Cc1ccc(C2=CC(=O)/C(=C\C(=O)c3ccc(Cl)cc3)O2)cc1`, the TGI with UACC-257 melanoma was 4.75 µM; with T-47D breast it was 24.3 µM; in the assay on M14 melanoma, 39.3 µM; in the assay with OVCAR-5 ovarian, 40.6 µM; with HCC-2998 colon, 51.1 µM; in the assay on OVCAR-3 ovarian it was 18.4 µM. Also, the results for the TGI in the assay on SK-MEL-28 melanoma and in the assay with UACC-62 melanoma were 33.1 µM and 23.8 µM, respectively.

In the case of `O=c1cc(-c2ccccc2)oc2c(-c3cc(Cl)cc4c(=O)cc(-c5ccccc5)oc34)cc(Cl)cc12`, the TGI in the assay with SF-295 CNS was more than 100 µM; in the assay on T-47D breast, 75.6 µM; in the assay with SN12C renal it was more than 100 µM; in the assay on M14 melanoma, more than 100 µM; in the assay on OVCAR-5 ovarian, more than 100 µM; in the assay on HCC-2998 colon it was more than 100 µM. Also, the TGI in the assay with OVCAR-3 ovarian was 80.5 µM; in the assay on SK-MEL-28 melanoma, more than 100 µM; in the assay on UACC-62 melanoma, 48.4 µM.

For the compound `CC1(C)[C@H]2CC[C@@]13C(=O)N1C(=O)O[C@@H]([C@H]1Cl)C(Cl)(COCc1ccccc1)C(=O)OCCO[C@H]3C2` (stereo partly drawn), the TGI in the assay with UACC-257 melanoma, with SF-295 CNS, in the assay on T-47D breast, with M14 melanoma, with OVCAR-5 ovarian and in the assay with HCC-2998 colon was more than 100 µM each time. For the same compound, the TGI with OVCAR-3 ovarian, in the assay on SK-MEL-28 melanoma and in the assay on UACC-62 melanoma was more than 100 µM throughout.

Regarding `N#Cc1c(-c2ccccc2)cc(-c2ccc(Cl)cc2)[nH]c1=S`, the TGI in the assay on SF-295 CNS is 83.7 µM; in the assay with T-47D breast, more than 100 µM; with SN12C renal it was more than 100 µM; with M14 melanoma, more than 100 µM; with OVCAR-5 ovarian, more than 100 µM; in the assay on HCC-2998 colon, more than 100 µM. Besides, the results for the TGI in the assay on OVCAR-3 ovarian, with SK-MEL-28 melanoma and in the assay on UACC-62 melanoma were more than 100 µM, 80.1 µM and 92.1 µM, respectively.

With `O=C(c1ccncc1)C1C(=O)c2ccccc2C1C1(O)c2ccccc2CC1C(O)c1ccncc1` (stereo not drawn), the TGI with UACC-257 melanoma, with SF-295 CNS, in the assay on T-47D breast, in the assay on SN12C renal, with M14 melanoma and with OVCAR-5 ovarian was more than 100 µM throughout. The TGI in the assay with HCC-2998 colon was more than 100 µM; with SK-MEL-28 melanoma, more than 100 µM; with UACC-62 melanoma it was 48.7 µM.

On to `COc1ccc(-c2cc(-c3ccccc3)[nH]c(=S)c2C#N)cc1`, for which the TGI in the assay on SF-295 CNS is more than 100 µM; in the assay with T-47D breast, 94.3 µM; with SN12C renal, more than 100 µM; in the assay with M14 melanoma it was 94 µM; in the assay on OVCAR-5 ovarian, more than 100 µM; with HCC-2998 colon it was more than 100 µM. Moreover, the TGI in the assay on OVCAR-3 ovarian turned out to be 38.3 µM; with SK-MEL-28 melanoma, 58.7 µM; with UACC-62 melanoma, 46.2 µM.

As for `C1=C\SS/C=C\SS/1`, the TGI in the assay with UACC-257 melanoma, in the assay with SF-295 CNS, with T-47D breast, in the assay on SN12C renal, in the assay on M14 melanoma and in the assay with OVCAR-5 ovarian was more than 100 µM in each case. In addition, the TGI in the assay with HCC-2998 colon, in the assay on SK-MEL-28 melanoma and in the assay with UACC-62 melanoma was more than 100 µM in each case.
